Source: PubChem BioAssay AID1845211 (Molecular Pharmacology Branch, DTP, NCI, 2023)

Test system: NCI-H322M multicellular tumor spheroids, viability (% test/control)
Assay: Anticancer human tumor NCI-H322M cell line growth inhibition;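 as to viability, T/C: spheroids exposed to compound for seven days before readout; 100% = DMSO vehicle control wells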
Settings: for IC50: curve of first compound; for viability, T/C: stronger effect = lower value
How it was run: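 Complex tumor spheroids combined malignant cells with endothelial cells and mesenchymal stem cells. DNA-damaging drugs and DNA repair inhibitors were tested alone and in combination, at half-log dilutions down from clinical Cmax (top 10 microM if Cmax unknown), 0.25% DMSO final.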

[1] = second compound 0.003 µM, first compound 0.0316 µM
[2] = second compound 0.003 µM, first compound 0.1 µM
[3] = second compound 0.003 µM, first compound 0.316 µM
[4] = second compound 0.003 µM, first compound 1 µM
[5] = second compound 0.003 µM, first compound 3.16 µM
[6] = second compound 0.003 µM, first compound 10 µM
[7] = second compound 0.00949 µM, first compound 0.0316 µM
[8] = second compound 0.00949 µM, first compound 0.1 µM
[9] = second compound 0.00949 µM, first compound 0.316 µM
[10] = second compound 0.00949 µM, first compound 1 µM
[11] = second compound 0.00949 µM, first compound 3.16 µM
[12] = second compound 0.00949 µM, first compound 10 µM
[13] = second compound 0.03 µM, first compound 0.0316 µM
[14] = second compound 0.03 µM, first compound 0.1 µM
[15] = second compound 0.03 µM, first compound 0.316 µM
[16] = second compound 0.03 µM, first compound 1 µM
[17] = second compound 0.03 µM, first compound 3.16 µM
[18] = second compound 0.03 µM, first compound 10 µM
[19] = second compound 0.0949 µM, first compound 0.0316 µM
[20] = second compound 0.0949 µM, first compound 0.1 µM
[21] = second compound 0.0949 µM, first compound 0.316 µM
[22] = second compound 0.0949 µM, first compound 1 µM
[23] = second compound 0.0949 µM, first compound 3.16 µM
[24] = second compound 0.0949 µM, first compound 10 µM
[25] = second compound 0.3 µM, first compound 0.0316 µM
[26] = second compound 0.3 µM, first compound 0.1 µM
[27] = second compound 0.3 µM, first compound 0.316 µM
[28] = second compound 0.3 µM, first compound 1 µM
[29] = second compound 0.3 µM, first compound 3.16 µM
[30] = second compound 0.3 µM, first compound 10 µM
[31] = second compound 30 pM, first compound 0.00949 µM
[32] = second compound 30 pM, first compound 0.03 µM
[33] = second compound 30 pM, first compound 0.0949 µM
[34] = second compound 30 pM, first compound 0.3 µM
[35] = second compound 30 pM, first compound 0.949 µM
[36] = second compound 30 pM, first compound 3 µM
[37] = second compound 94.9 pM, first compound 0.00949 µM
[38] = second compound 94.9 pM, first compound 0.03 µM
[39] = second compound 94.9 pM, first compound 0.0949 µM
[40] = second compound 94.9 pM, first compound 0.3 µM
[41] = second compound 94.9 pM, first compound 0.949 µM
[42] = second compound 94.9 pM, first compound 3 µM
[43] = second compound 0.0003 µM, first compound 0.00949 µM
[44] = second compound 0.0003 µM, first compound 0.03 µM
[45] = second compound 0.0003 µM, first compound 0.0949 µM
[46] = second compound 0.0003 µM, first compound 0.3 µM
[47] = second compound 0.0003 µM, first compound 0.949 µM
[48] = second compound 0.0003 µM, first compound 3 µM
[49] = second compound 0.000949 µM, first compound 0.00949 µM
[50] = second compound 0.000949 µM, first compound 0.03 µM
[51] = second compound 0.000949 µM, first compound 0.0949 µM
[52] = second compound 0.000949 µM, first compound 0.3 µM
[53] = second compound 0.000949 µM, first compound 0.949 µM
[54] = second compound 0.000949 µM, first compound 3 µM
[55] = second compound 0.003 µM, first compound 0.00949 µM
[56] = second compound 0.003 µM, first compound 0.03 µM
[57] = second compound 0.003 µM, first compound 0.0949 µM
[58] = second compound 0.003 µM, first compound 0.3 µM
[59] = second compound 0.003 µM, first compound 0.949 µM
[60] = second compound 0.003 µM, first compound 3 µM

CC(C)n1c(=O)n(C)c2cnc3cc(F)c(-c4ccc(OCCCN5CCCCC5)nc4)cc3c21 + CC[C@@]1(O)C(=O)OCc2c1cc1n(c2=O)Cc2cc3c(CN(C)C)c(O)ccc3nc2-1
IC50 (second compound 0.003 µM): > 10000 nM | IC50 (second compound 0.00949 µM): > 10000 nM | IC50 (second compound 0.03 µM): > 10000 nM | IC50 (second compound 0.0949 µM): > 10000 nM | IC50 (second compound 0.3 µM): > 10000 nM | viability, T/C [1]: 73.3% | viability, T/C [2]: 81.4% | viability, T/C [3]: 80% | viability, T/C [4]: 75.9% | viability, T/C [5]: 77.4% | viability, T/C [6]: 73.2% | viability, T/C [7]: 73.2% | viability, T/C [8]: 72.8% | viability, T/C [9]: 77.3% | viability, T/C [10]: 75.3% | viability, T/C [11]: 85.1% | viability, T/C [12]: 71.4% | viability, T/C [13]: 67.2% | viability, T/C [14]: 73.8% | viability, T/C [15]: 65.3% | viability, T/C [16]: 72.5% | viability, T/C [17]: 73% | viability, T/C [18]: 70.2% | viability, T/C [19]: 58.8% | viability, T/C [20]: 56.5% | viability, T/C [21]: 69.3% | viability, T/C [22]: 65.2% | viability, T/C [23]: 67.2% | viability, T/C [24]: 68.6% | viability, T/C [25]: 53.3% | viability, T/C [26]: 50.3% | viability, T/C [27]: 54.7% | viability, T/C [28]: 62.6% | viability, T/C [29]: 61.6% | viability, T/C [30]: 55%

COc1ccc([C@@H](O)c2cc(-c3ncnc4cc(N5CCOCC5)ccc34)c(F)cc2Cl)nn1 + CC[C@@]1(O)C(=O)OCc2c1cc1n(c2=O)Cc2cc3c(CN(C)C)c(O)ccc3nc2-1
IC50 (second compound 0.003 µM): 1670 nM | IC50 (second compound 0.00949 µM): 1360 nM | IC50 (second compound 0.03 µM): 1050 nM | IC50 (second compound 0.0949 µM): 721 nM | IC50 (second compound 0.3 µM): 384 nM | viability, T/C [1]: 79.4% | viability, T/C [2]: 88.7% | viability, T/C [3]: 91.2% | viability, T/C [4]: 59.2% | viability, T/C [5]: 45% | viability, T/C [6]: 32.2% | viability, T/C [7]: 80.8% | viability, T/C [8]: 75.8% | viability, T/C [9]: 79.7% | viability, T/C [10]: 52.5% | viability, T/C [11]: 45.4% | viability, T/C [12]: 32.2% | viability, T/C [13]: 72.5% | viability, T/C [14]: 80.1% | viability, T/C [15]: 61.8% | viability, T/C [16]: 51.8% | viability, T/C [17]: 37.2% | viability, T/C [18]: 30.2% | viability, T/C [19]: 76.5% | viability, T/C [20]: 61.7% | viability, T/C [21]: 61.9% | viability, T/C [22]: 46.3% | viability, T/C [23]: 36.1% | viability, T/C [24]: 29.8% | viability, T/C [25]: 56.4% | viability, T/C [26]: 54.4% | viability, T/C [27]: 52.7% | viability, T/C [28]: 37.6% | viability, T/C [29]: 26% | viability, T/C [30]: 24.4%

CNCc1ccc(-c2cc(-c3nc(-c4ccc(S(=O)(=O)C(C)C)cc4)cnc3N)on2)cc1 + COc1cc2c(cc1O)CCNC21CSC2c3c(OC(C)=O)c(C)c4c(c3C(COC1=O)N1C(O)C3Cc5cc(C)c(OC)c(O)c5C(C21)N3C)OCO4
IC50 (second compound 30 pM): > 3000 nM | IC50 (second compound 94.9 pM): > 3000 nM | IC50 (second compound 0.0003 µM): > 3000 nM | IC50 (second compound 0.000949 µM): 479 nM | IC50 (second compound 0.003 µM): < 9.49 nM | viability, T/C [31]: 98.7% | viability, T/C [32]: 102% | viability, T/C [33]: 82.5% | viability, T/C [34]: 76.4% | viability, T/C [35]: 69.5% | viability, T/C [36]: 70% | viability, T/C [37]: 95.5% | viability, T/C [38]: 80.2% | viability, T/C [39]: 85.6% | viability, T/C [40]: 73.4% | viability, T/C [41]: 66.4% | viability, T/C [42]: 66.1% | viability, T/C [43]: 85.7% | viability, T/C [44]: 85.8% | viability, T/C [45]: 77.8% | viability, T/C [46]: 60.5% | viability, T/C [47]: 59.4% | viability, T/C [48]: 59.2% | viability, T/C [49]: 81.9% | viability, T/C [50]: 76.9% | viability, T/C [51]: 71.4% | viability, T/C [52]: 51.9% | viability, T/C [53]: 47.3% | viability, T/C [54]: 44.4% | viability, T/C [55]: 9.27% | viability, T/C [56]: 10.9% | viability, T/C [57]: 10.1% | viability, T/C [58]: 9.72% | viability, T/C [59]: 12.4% | viability, T/C [60]: 7.67%

Cn1ncnc1[C@H]1c2n[nH]c(=O)c3cc(F)cc(c23)N[C@@H]1c1ccc(F)cc1 + COc1cc2c(cc1O)CCNC21CSC2c3c(OC(C)=O)c(C)c4c(c3C(COC1=O)N1C(O)C3Cc5cc(C)c(OC)c(O)c5C(C21)N3C)OCO4
IC50 (second compound 30 pM): > 3000 nM | IC50 (second compound 94.9 pM): > 3000 nM | IC50 (second compound 0.0003 µM): > 3000 nM | IC50 (second compound 0.000949 µM): 1520 nM | IC50 (second compound 0.003 µM): < 9.49 nM | viability, T/C [31]: 78.7% | viability, T/C [32]: 89.2% | viability, T/C [33]: 68.8% | viability, T/C [34]: 82% | viability, T/C [35]: 75.2% | viability, T/C [36]: 65.6% | viability, T/C [37]: 71.4% | viability, T/C [38]: 78.2% | viability, T/C [39]: 78.8% | viability, T/C [40]: 70.5% | viability, T/C [41]: 68.2% | viability, T/C [42]: 59.5% | viability, T/C [43]: 88.8% | viability, T/C [44]: 85% | viability, T/C [45]: 82.9% | viability, T/C [46]: 77.8% | viability, T/C [47]: 67.3% | viability, T/C [48]: 62.9% | viability, T/C [49]: 73.6% | viability, T/C [50]: 68.6% | viability, T/C [51]: 72.5% | viability, T/C [52]: 64.4% | viability, T/C [53]: 56.9% | viability, T/C [54]: 40.3% | viability, T/C [55]: 6.87% | viability, T/C [56]: 9.48% | viability, T/C [57]: 6.81% | viability, T/C [58]: 3.83% | viability, T/C [59]: 10.6% | viability, T/C [60]: 1.7%

O=C(c1cc(Cc2n[nH]c(=O)c3ccccc23)ccc1F)N1CCN(C(=O)C2CC2)CC1 + COc1cc2c(cc1O)CCNC21CSC2c3c(OC(C)=O)c(C)c4c(c3C(COC1=O)N1C(O)C3Cc5cc(C)c(OC)c(O)c5C(C21)N3C)OCO4
IC50 (second compound 30 pM): > 30000 nM | IC50 (second compound 94.9 pM): > 30000 nM | IC50 (second compound 0.0003 µM): > 30000 nM | IC50 (second compound 0.000949 µM): 20800 nM | IC50 (second compound 0.003 µM): < 94.9 nM | viability, T/C [33]: 81.3% | viability, T/C [34]: 84.3% | viability, T/C [35]: 90.6% | viability, T/C [36]: 79.8% | viability, T/C (second compound 30 pM, first compound 9.49 µM): 85.8% | viability, T/C (second compound 30 pM, first compound 30 µM): 110% | viability, T/C [39]: 90.7% | viability, T/C [40]: 84.9% | viability, T/C [41]: 88.5% | viability, T/C [42]: 87.5% | viability, T/C (second compound 94.9 pM, first compound 9.49 µM): 79.4% | viability, T/C (second compound 94.9 pM, first compound 30 µM): 98.5% | viability, T/C [45]: 99.6% | viability, T/C [46]: 84.7% | viability, T/C [47]: 79.9% | viability, T/C [48]: 83.3% | viability, T/C (second compound 0.0003 µM, first compound 9.49 µM): 79.8% | viability, T/C (second compound 0.0003 µM, first compound 30 µM): 95.9% | viability, T/C [51]: 83.4% | viability, T/C [52]: 77.7% | viability, T/C [53]: 69.5% | viability, T/C [54]: 72.7% | viability, T/C (second compound 0.000949 µM, first compound 9.49 µM): 67.6% | viability, T/C (second compound 0.000949 µM, first compound 30 µM): 42.2% | viability, T/C [57]: 11.3% | viability, T/C [58]: 14.1% | viability, T/C [59]: 8.06% | viability, T/C [60]: 7.88% | viability, T/C (second compound 0.003 µM, first compound 9.49 µM): 4.62% | viability, T/C (second compound 0.003 µM, first compound 30 µM): 1.81%
